We go through ten compounds from patent US11420973B2, “Amide substituted indole compounds useful as TLR inhibitors” (BRISTOL-MYERS SQUIBB COMPANY, priority 2017, dated 2022).

Assay [1] has as its target human TLR8 (Homo sapiens (Human), UniProt Q9NR97). Put plainly: TLR8 inhibition reporter assay (HEK-Blue SEAP reporter, R848 stimulation).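 Further: SEAP driven by IFN-β minimal promoter with NF-κB and AP-1 sites, 22 h incubation, compounds 0.05 nM–50 µM, inhibition scaled between agonist plus DMSO and reference inhibitor wells.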 Background: Reporter assays use an easily measured gene product as a stand-in for the process of interest.
Assay [2] concerns the target human TLR7 (Homo sapiens (Human), UniProt Q9NYK1). Put plainly: TLR7 inhibition reporter assay (HEK-Blue SEAP reporter, gardiquimod stimulation). It is filed as cell-based. To be noted: HEK-Blue cells overexpressing human TLR7, gardiquimod 7.5 μM.
Assay [3] has as its target human TLR9 (Homo sapiens (Human), UniProt Q9NR96). The assay is described as follows: TLR9 inhibition reporter assay (HEK-Blue SEAP reporter, ODN2006 stimulation).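 Further: SEAP reporter under IFN-β minimal promoter with five NF-κB and AP-1 sites, 22 h incubation, compounds 0.05 nM–50 µM, inhibition relative to agonist plus DMSO versus known inhibitor.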
Setting [4] is: read-out: TLR8 IC50, HEK-Blue cells overexpressing human TLR8, R848 15.9 μM, SEAP reporter.
Where [5] appears, read: read-out: TLR9 IC50, HEK-Blue cells overexpressing human TLR9, ODN2006 5 nM, SEAP reporter.

Where a name gives a salt, the structure may show the parent alone. Read-outs that look alike come from different tables or passages of the source.

human TLR7, sequence (Q9NYK1 27-1049): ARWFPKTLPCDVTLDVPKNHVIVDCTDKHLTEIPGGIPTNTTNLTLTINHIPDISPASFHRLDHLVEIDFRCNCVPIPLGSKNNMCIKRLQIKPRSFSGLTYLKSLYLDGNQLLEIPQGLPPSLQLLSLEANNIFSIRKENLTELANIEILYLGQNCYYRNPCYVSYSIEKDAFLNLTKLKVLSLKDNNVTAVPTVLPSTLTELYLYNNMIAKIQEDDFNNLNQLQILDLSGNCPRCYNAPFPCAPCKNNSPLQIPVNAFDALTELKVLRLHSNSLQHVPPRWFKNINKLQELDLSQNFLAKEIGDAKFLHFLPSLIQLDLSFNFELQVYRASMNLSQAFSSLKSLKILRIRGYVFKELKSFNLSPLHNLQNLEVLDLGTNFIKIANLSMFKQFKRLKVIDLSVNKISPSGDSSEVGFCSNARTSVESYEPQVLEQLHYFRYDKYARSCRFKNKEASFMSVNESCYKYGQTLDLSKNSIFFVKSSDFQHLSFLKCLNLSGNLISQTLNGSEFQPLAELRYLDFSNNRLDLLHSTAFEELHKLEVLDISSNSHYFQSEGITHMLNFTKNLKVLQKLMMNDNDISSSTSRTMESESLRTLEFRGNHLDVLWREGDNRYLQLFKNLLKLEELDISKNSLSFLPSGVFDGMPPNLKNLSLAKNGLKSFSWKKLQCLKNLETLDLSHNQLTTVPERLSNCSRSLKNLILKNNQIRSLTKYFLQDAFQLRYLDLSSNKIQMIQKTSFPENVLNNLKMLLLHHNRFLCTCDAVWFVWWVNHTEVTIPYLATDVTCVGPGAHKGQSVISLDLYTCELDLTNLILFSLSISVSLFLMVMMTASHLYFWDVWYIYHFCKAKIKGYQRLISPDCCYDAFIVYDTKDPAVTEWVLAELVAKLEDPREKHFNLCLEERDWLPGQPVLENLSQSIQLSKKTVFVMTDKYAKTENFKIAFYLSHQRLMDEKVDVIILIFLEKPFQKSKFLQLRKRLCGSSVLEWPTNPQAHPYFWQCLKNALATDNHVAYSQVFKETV
human TLR9, sequence (Q9NR96 26-1032): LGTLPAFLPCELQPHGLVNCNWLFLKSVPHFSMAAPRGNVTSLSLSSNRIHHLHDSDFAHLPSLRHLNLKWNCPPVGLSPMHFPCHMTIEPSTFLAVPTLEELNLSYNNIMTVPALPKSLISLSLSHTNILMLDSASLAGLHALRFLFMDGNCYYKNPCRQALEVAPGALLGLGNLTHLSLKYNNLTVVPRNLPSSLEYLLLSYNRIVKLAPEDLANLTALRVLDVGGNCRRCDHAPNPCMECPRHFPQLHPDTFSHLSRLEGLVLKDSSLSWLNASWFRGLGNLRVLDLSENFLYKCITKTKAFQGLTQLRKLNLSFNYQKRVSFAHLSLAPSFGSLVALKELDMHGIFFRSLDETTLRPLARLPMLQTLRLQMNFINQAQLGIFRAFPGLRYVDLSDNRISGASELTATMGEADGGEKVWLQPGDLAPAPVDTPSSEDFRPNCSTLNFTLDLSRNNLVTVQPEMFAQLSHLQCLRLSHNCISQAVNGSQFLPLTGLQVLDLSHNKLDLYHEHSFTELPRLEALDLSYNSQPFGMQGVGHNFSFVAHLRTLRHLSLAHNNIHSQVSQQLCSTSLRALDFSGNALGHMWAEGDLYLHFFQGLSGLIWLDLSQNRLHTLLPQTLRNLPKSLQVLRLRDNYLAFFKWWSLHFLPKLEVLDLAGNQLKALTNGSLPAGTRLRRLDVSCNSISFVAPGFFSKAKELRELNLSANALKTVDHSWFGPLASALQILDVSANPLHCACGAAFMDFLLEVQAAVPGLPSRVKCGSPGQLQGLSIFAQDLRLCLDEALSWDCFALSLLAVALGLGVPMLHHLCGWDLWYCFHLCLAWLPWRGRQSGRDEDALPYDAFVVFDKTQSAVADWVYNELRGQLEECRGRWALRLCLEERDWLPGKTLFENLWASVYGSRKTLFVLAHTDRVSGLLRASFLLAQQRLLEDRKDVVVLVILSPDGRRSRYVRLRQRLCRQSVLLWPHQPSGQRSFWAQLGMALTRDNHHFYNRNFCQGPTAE
human TLR8, sequence (Q9NR97 27-1041): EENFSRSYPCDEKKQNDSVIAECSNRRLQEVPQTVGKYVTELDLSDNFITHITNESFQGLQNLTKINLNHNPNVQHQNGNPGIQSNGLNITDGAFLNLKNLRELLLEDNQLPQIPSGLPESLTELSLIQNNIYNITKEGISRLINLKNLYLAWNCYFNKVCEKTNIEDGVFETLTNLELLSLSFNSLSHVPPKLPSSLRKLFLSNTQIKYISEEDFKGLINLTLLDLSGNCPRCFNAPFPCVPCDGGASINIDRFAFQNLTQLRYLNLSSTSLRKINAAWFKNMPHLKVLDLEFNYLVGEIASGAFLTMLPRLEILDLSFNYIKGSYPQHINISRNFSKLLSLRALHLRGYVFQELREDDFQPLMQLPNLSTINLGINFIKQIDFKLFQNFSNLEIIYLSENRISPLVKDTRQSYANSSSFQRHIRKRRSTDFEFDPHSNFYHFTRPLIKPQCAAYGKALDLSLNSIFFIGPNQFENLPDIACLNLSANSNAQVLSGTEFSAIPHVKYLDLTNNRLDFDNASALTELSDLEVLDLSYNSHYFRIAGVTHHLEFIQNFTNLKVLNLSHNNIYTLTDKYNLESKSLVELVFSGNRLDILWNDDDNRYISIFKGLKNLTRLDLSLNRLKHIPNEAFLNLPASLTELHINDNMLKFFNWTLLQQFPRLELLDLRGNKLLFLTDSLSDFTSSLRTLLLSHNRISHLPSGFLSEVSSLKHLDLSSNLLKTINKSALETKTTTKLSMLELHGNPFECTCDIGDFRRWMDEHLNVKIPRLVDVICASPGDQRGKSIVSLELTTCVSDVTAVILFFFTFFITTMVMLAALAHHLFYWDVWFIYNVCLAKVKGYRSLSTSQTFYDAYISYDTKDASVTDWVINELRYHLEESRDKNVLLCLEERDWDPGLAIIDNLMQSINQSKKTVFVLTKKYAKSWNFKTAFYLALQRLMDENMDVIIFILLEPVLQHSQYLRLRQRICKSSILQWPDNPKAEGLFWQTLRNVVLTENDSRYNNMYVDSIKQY

Consider `Cc1cc(-c2[nH]c3ccc(C(=O)N4CC5CN(C(C)C)CC5C4)cc3c2C(C)C)cc(C)n1` (stereo not drawn) [Example 110, (2-(2,6-dimethylpyridin-4-yl)-3-isopropyl-1H-indol-5-yl)(5-isopropylhexahydropyrrolo[3,4-c]pyrrol-2(1H)-yl)methanone], for which the results for the IC50 in assay [1] (setting [4]), in assay [2] and in assay [3] (setting [5]) were 11 nM, 49 nM and 410 nM, respectively.
As to `Cc1cc(-c2[nH]c3ccc(C(=O)N4CC5CN(C(=O)CN(C)C)CC5C4)cc3c2C(C)C)cc(C)n1` (stereo not drawn) [Example 111, 2-(dimethylamino)-1-(5-(2-(2,6-dimethylpyridin-4-yl)-3-isopropyl-1H-indole-5-carbonyl)hexahydropyrrolo[3,4-c]pyrrol-2(1H)-yl)ethanone], the IC50 is 74 nM in assay [1] (setting [4]), 171 nM in assay [2] and 668 nM in assay [3] (setting [5]).
As for `Cc1cc(-c2[nH]c3ccc(C(=O)N4CC5CNCC5C4)cc3c2C(C)C)ccn1` (stereo not drawn) [Example 112, (hexahydropyrrolo[3,4-c]pyrrol-2(1H)-yl)(3-isopropyl-2-(2-methylpyridin-4-yl)-1H-indol-5-yl)methanone, HCl], the IC50 in assay [1] was 36 nM; in assay [2], 335 nM; in assay [3] it was 334 nM.
`Cc1cc(-c2[nH]c3ccc(C(=O)NC4CCN(C(C)C)CC4)cc3c2C(C)C)ccn1` [Example 113, 3-isopropyl-N-(1-isopropylpiperidin-4-yl)-2-(2-methylpyridin-4-yl)-1H-indole-5-carboxamide]: the concentration for half-maximal inhibition (IC50) in assay [1] (setting [4]) amounted to 0.8 nM; in assay [2], 50 nM; in assay [3] (setting [5]), 1270 nM.
Take `Cc1cc(-c2[nH]c3ccc(C(=O)N4CCCN(C)CC4)cc3c2C(C)C)ccn1` [Example 114, (3-isopropyl-2-(2-methylpyridin-4-yl)-1H-indol-5-yl)(4-methyl-1,4-diazepan-1-yl)methanone]: the IC50 worked out at 2.4 nM in assay [1] (setting [4]), 135 nM in assay [2] and 3630 nM in assay [3] (setting [5]).
On the same counts, the results for `Cc1cc(-c2[nH]c3ccc(C(=O)N4CC5CN(C)CC5C4)cc3c2C(C)C)ccn1` (stereo not drawn) [Example 115, (3-isopropyl-2-(2-methylpyridin-4-yl)-1H-indol-5-yl)(5-methylhexahydropyrrolo[3,4-c]pyrrol-2(1H)-yl)methanone] are 3.5 nM, 147 nM and 1580 nM.
The matching figures for `Cc1cc(-c2[nH]c3ccc(C(=O)N4CC5CN(C(C)C)CC5C4)cc3c2C(C)C)ccn1` (stereo not drawn) [Example 116, (3-isopropyl-2-(2-methylpyridin-4-yl)-1H-indol-5-yl)(5-isopropylhexahydropyrrolo[3,4-c]pyrrol-2(1H)-yl)methanone]: 3.6 nM, 117 nM and 985 nM.
The matching figures for `Cc1cc(-c2[nH]c3ccc(C(=O)N4CC5CN(CC(=O)N(C)C)CC5C4)cc3c2C(C)C)ccn1` (stereo not drawn) [Example 117, 2-(5-(3-isopropyl-2-(2-methylpyridin-4-yl)-1H-indole-5-carbonyl)hexahydropyrrolo[3,4-c]pyrrol-2(1H)-yl)-N,N-dimethylacetamide]: 20 nM, 730 nM and 3700 nM.
As for `CNC(=O)CN1CC2CN(C(=O)c3ccc4[nH]c(-c5ccnc(C)c5)c(C(C)C)c4c3)CC2C1` (stereo not drawn) [Example 118, 2-(5-(3-isopropyl-2-(2-methylpyridin-4-yl)-1H-indole-5-carbonyl)hexahydropyrrolo[3,4-c]pyrrol-2(1H)-yl)-N-methylacetamide], the IC50 was found to be 165 nM in assay [1] (setting [4]), 4050 nM in assay [2] and 22700 nM in assay [3] (setting [5]).
The matching figures for `CNCC(=O)N1CC2CN(C(=O)c3ccc4[nH]c(-c5ccnc(C)c5)c(C(C)C)c4c3)CC2C1` (stereo not drawn) [Example 119, 1-(5-(3-isopropyl-2-(2-methylpyridin-4-yl)-1H-indole-5-carbonyl)hexahydropyrrolo[3,4-c]pyrrol-2(1H)-yl)-2-(methylamino)ethanone]: 226 nM, 2610 nM and 2230 nM.

Usually IC50 stands for the concentration needed to halve the response being measured.
